The target in test [1] is T1, LSD1 and EOMES (Mus musculus, UniProt Q6ZQ88).
T1 construct: CD8^+ T-cells isolated from the 4T1 metastatic xenograft mouse model; endogenous in cells; host or cells: CD8+ T-cells isolated from the tumour micro-environment of treated 4T1 mice
Briefly: Immunofluorescence co-expression and co-localization of LSD1 and EOMES in CD8+ T-cells. The format is in vivo. On the procedure:
FIG. 6 is a graphical and photographic representation depicting nuclear LSD1 complexes with EOMES in exhausted T-cell signatures. A. Nanostring transcript analysis was performed on isolated CD8^+ T-cells isolated from a 4T1 metastatic cancer mouse model treated with either Group A=Control, Group C: PD1 (10 mg/kg), Group D: Phenelzine (40 mg/kg), or Group F: PD1+Phenelzine. […] B. Immunofluorescence microscopy was performed on CD8^+ T-cells fixed and probed with primary anti-LSD1, anti-EOMES and anti-CD8 antibodies and DAPI. Representative images for each dataset are shown. […] C. […] Plot-profiles were plotted with the use of ImageJ software measuring a series of fluorescent intensities along a line spanning the nucleus. The pattern of the two plots can give an insight into the nature of the relationship between the two fluorochromes. Imagej software with automatic thresholding and manual selection ? for nucleus of cells was used to calculate the Pearson's co ? (PCC) for each pair of antibodies. The PCC Values range from −1=inverse of co-localization, 0=no co-localization, +1=perfect co-localization.
To unravel this role, the present inventors examined the co-expression of LSD1 and EOMES (an exhaustion marker) in CD8^+ T-cells isolated from the 4T1 metastatic xenograft mouse model.
This negative co-localization was unaffected by treatment with PD1 or LSD1 inhibitors (FIG. 7).
(§1) A total of 2×10^5 cells were injected per mouse into mammary gland in 50 μL of phosphate buffered saline (PBS). Treatments were started on mice after 15 days post-inoculation of 4T1 cells. […] Tumors were measured using calipers and the tumor volumes (mm3) were calculated using the formula (length×width2)/2. ? arvested cells from primary tumors where then cytospun ? -treated with poly-1-lysine and fixed then stored in PBS for IFA Microscopy Analysis. […] Digital images were analysed using ImageJ software (ImageJ, NIH, Bethesda, Md., USA) to determine the either the Total Nuclear Fluorescent Intensity (TNFI), the Total Cytoplasmic Fluorescent Intensity (TCFI) or total Fluorescent Intensity (TFI).

Test [2] concerns F4/80+ macrophages (CD38, CD206, LSD1p). Briefly: Immunofluorescence assay of TME macrophage populations (M1/M2 profiles). The format is in vivo, mouse. On the procedure: FIG. 4 is a graphical representation showing that dual epigenetic-immunotherapy re-educates and re-programs innate macrophage repertoire. A. Immunofluorescence microscopy was performed on F4/80+MØ cells fixed and probed with a M1 panel consisting of anti-CD38 and ? odies and DAPI. […] B. Immunofluorescence microscopy was performed on F4/80+MØ cells fixed and probed with a M2 panel consisting of anti-CD206 and anti LSD1p antibodies and DAPI.
The effect of these treatment modalities was also investigated on TME macrophage populations by immunofluorescence assay (IFA). In particular, the M1 (CD38 expression) and M2 profiles (CD206 expression) were examined, along with LSD1p expression.
as §1

For test [3], the target named is LSD1 (Homo sapiens, UniProt O60341). The following applies: MDA-MB-231; TNFI of LSD1p and H3k4me2. On the procedure: (§2) A. MDA-MB-231 breast cancer cell line was treated with increasing doses of phenelzine sulfate (phenelzine). Immunofluorescence microscopy was performed on cells fixed and probed with primary anti-LSD1s111p and anti-H3k4me2 and DAPI. Representative images for each dataset are shown. Graph represents the TNFI values for LSD1p and H3k4me2 measured using ImageJ to select the nucleus minus background (n>20 individual cells). B. The effect of phenelzine sulfate on cell proliferation of MDA-MB-231 cells was analyzed using the WST-1 proliferation assay

In test [4] the test system is MDA-MB-231 breast cancer cell line. On the procedure: as §2

Where a name gives a salt, the structure may show the parent alone.

On to `NNCCc1ccccc1` (racemic) [phenelzine sulfate, (±)-2-phenylethylhydrazine], for which, in test [1] (CD8+ T-cells, nuclear TNFI), the EOMES expression entry is reported as “marked inhibition” and the LSD1 expression entry was “marked inhibition”. Besides, the “LSD1/EOMES nuclear protein complex (co-localization, plot-profiles and PCC)” value in test [1] (nucleus of exhausted CD8+ T-cells) is “markedly inhibited”. In test [2], the “M1 phenotype (CD38 expression and LSD1p inhibition)” value was “most strongly enhanced”; the “tumor associated M2 profile (CD206 and LSD1p expression)” value was “re-programmed and inhibited”. Besides, the “nuclear axis of LSD1, as measured by H3k4me2 de-methylation” value in test [3] is reported as “inhibited”. In test [4], the “proliferation of MDA-MB-231, as measured by the WST-1 assay” value is listed as “inhibiting the proliferation”.

(Values after US20210186905A1, “ENHANCING T-CELL FUNCTION AND TREATING A T-CELL DYSFUNCTIONAL DISORDER WITH A COMBINATION OF AN LSD INHIBITOR AND A PD-1 BINDING ANTAGONIST” (EpiAxis Therapeutic Pty Ltd, priority 2017, published 2021).)
